The target of data set [1] is hERG (Homo sapiens, UniProt Q12809). The data set can be described thus: hERG % inhibition at 1 uM.
Data set [2] deals with IP3. The data set can be described thus: IC50 (IP3). The data set is classed as cell-based.
Data set [3] can be described thus: Rat pK. To be noted: in vivo; for bioavailability: read-out: Rat pK: % F.
Data set [4] addresses T1, 5HT2B (Homo sapiens, UniProt P41595). The data set can be described thus: Functional activity IC50 (5HT2B antagonist). The data set is classed as cell-based.
The target of data set [5] is D2S (Homo sapiens, UniProt P14416). As to the kind of experiment: D2S binding (Ki).
The nature of data set [6]: % Protein Binding. The data set is classed as in vitro ADME.
Data set [7] is described as follows: HLM T1/2. To be noted: human, liver microsomes. A general note: Microsomes from liver hold many membrane-bound enzymes, among them those of drug oxidation.
Data set [8] has as its target T2, 5HT1A (Homo sapiens, UniProt P08908).
T2 sequence (P08908 1-422): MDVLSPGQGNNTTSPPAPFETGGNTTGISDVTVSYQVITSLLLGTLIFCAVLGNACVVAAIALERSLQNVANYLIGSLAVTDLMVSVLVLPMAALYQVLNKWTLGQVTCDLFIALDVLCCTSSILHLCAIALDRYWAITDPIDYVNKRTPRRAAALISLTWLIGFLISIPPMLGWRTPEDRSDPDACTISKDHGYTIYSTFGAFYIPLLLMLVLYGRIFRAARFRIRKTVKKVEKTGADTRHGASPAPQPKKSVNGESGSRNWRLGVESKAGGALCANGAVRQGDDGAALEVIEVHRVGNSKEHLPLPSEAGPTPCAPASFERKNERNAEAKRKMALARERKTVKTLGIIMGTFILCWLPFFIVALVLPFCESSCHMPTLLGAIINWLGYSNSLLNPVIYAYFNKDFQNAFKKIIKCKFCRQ
The data set can be described thus: 5HT1A binding (Ki).

The target of data set [9] is T1, 5HT2B. The data set can be described thus: 5HT2B binding (Ki of Biological Data Table).
The mark [10] stands for this setting: iv, read-out: Rat pK: T1/2 (iv).
Setting [11] is: po, read-out: Rat pK: T1/2 (po).

Counter-ions that a name gives are not always drawn. Like-named read-outs stand apart in the source and are kept apart here.

The source of these data is patent publication US20110082157A1, “Piperidinylamino-Thieno [2,3-D] Pyrimidine Compounds” (priority 2004, published 2011).

Sequence of hERG (Q12809 whole entry): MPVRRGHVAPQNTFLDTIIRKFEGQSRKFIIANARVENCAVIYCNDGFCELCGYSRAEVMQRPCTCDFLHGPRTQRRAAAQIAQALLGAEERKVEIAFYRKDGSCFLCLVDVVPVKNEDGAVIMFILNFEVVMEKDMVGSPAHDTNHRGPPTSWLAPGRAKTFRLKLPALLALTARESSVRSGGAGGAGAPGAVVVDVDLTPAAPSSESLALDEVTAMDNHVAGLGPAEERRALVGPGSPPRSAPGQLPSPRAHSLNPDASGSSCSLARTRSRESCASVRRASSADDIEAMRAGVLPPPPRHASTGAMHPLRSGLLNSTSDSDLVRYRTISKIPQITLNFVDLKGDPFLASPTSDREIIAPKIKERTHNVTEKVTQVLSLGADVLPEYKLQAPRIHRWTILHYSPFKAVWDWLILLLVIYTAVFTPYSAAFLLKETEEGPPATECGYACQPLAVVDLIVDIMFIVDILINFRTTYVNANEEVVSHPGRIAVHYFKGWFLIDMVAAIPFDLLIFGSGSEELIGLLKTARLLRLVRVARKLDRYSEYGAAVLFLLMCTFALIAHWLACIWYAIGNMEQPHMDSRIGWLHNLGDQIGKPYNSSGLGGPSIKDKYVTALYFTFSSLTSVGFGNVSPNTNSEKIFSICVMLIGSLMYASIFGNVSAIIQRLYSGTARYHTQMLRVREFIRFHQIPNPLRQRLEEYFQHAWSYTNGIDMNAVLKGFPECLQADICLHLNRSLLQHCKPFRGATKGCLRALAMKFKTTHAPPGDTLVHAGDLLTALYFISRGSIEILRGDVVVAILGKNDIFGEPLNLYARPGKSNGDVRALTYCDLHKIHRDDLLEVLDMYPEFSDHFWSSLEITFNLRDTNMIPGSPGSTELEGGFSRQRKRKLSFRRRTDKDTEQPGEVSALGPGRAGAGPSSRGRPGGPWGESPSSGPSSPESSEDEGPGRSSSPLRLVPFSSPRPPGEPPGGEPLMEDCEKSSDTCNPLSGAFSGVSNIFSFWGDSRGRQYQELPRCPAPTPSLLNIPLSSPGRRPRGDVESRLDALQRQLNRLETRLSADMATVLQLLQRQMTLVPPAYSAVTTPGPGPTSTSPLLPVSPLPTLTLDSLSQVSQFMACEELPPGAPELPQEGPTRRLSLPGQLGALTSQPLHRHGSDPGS
Sequence of D2S (P14416 1-414 isoform P14416-2): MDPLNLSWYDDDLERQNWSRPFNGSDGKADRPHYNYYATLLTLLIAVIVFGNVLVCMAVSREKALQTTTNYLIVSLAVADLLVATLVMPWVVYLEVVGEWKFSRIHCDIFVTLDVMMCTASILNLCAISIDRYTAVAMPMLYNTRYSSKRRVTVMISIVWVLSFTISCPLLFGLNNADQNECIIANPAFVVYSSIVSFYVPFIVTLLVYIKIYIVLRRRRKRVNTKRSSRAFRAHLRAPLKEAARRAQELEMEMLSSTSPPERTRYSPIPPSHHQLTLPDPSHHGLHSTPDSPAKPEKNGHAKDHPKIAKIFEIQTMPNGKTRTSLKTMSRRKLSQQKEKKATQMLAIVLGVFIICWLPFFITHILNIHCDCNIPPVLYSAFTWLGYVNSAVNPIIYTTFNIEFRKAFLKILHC
T1 sequence (P41595 whole entry, species assumed): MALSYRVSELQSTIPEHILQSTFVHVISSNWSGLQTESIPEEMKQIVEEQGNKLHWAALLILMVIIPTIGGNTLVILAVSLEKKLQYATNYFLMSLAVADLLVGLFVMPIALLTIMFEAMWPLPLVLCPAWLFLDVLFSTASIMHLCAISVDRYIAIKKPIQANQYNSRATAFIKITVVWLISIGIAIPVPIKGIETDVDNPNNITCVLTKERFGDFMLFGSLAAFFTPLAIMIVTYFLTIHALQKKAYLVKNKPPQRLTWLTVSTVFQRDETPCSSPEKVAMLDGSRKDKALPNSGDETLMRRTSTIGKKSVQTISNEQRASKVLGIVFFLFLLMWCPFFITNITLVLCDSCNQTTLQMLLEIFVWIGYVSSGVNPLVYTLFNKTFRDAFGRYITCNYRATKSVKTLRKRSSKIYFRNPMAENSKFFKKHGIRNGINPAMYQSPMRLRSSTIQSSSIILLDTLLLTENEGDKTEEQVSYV

As usually defined, the IC50 is the midpoint of a concentration-inhibition curve. The Ki is the equilibrium dissociation constant of an inhibitor or competing ligand from its target. Lower therefore signals higher affinity. A word on the fraction unbound: it is free concentration divided by total concentration. A lower fraction unbound goes with little free substance. `Cc1c(Cl)sc2ncnc(NC3CCN(Cc4cccc(F)c4)CC3)c12.O=C(O)/C=C\C(=O)O` [Example B38, N-(1-(3-fluorobenzyl)piperidin-4-yl)-6-chloro-5-methylthieno[2,3-d]pyrimidin-4-amine, monomaleate]: the “hERG (% Inhibition at 1 uM)” value in [1] came out at 78.1%. Moreover, the IC50 was 2.27 nM in data set [2] and 560 nM in data set [4]. Besides, the figures for the half-life in data set [3] (setting [10]) and in data set [3] (setting [11]) were 24 min and 54 min, respectively. For the same compound, the bioavailability in data set [3] (po) is 18.2%. In addition, the inhibition constant Ki in data set [5] (NA: Not Active) amounted to 170 nM. This compound showed a fraction unbound in data set [6] of 0.062.

In data set [7], `Fc1ccc(-c2c(Cl)sc3ncnc(NC4CCN(Cc5cc(F)cc(F)c5)CC4)c23)cc1` [Example B48, N-(1-(3,5-difluorobenzyl)piperidin-4-yl)-6-chloro-5-(4-fluorophenyl) thieno[2,3-d]pyrimidin-4-amine, monomaleate] came in with a half-life of less than 15 min. Besides, the “Ki (5HT1A)” value in [8] is “not Active”. Also, in data set [5], the Ki amounted to 1100 nM.

On to `Clc1cc2c(NC3CCN(Cc4cccnc4)CC3)ncnc2s1` [Example B47, 6-chloro-N-(1-((pyridin-3-yl)methyl)piperidin-4-yl)thieno [2,3-d]pyrimidin-4-amine, monomaleate], for which, in data set [7], the half-life was 12 min. The compound also yielded an inhibition constant Ki in data set [5] of more than 10000 nM.

For the compound `N#Cc1cccc(CN2CCC(Nc3ncnc4sc5c(c34)CCCC5)CC2)c1` [Example B11, 3-((4-(5,6,7,8-tetrahydro-benzo[4,5]thieno[2,3-d]pyrimidin-4-ylamino)piperidin-1-yl)methyl)benzonitrile, dihydrochloride], the “hERG (% Inhibition at 1 uM)” value in [1] is on record as “hERG (% Inhibition at 1 uM): 44.9”. The same compound came in with a half-life in [7] of less than 15 min. Also, the “% at 1 nM (5HT2B)” value in [9] (1 nM) came out at 35%. Besides, in data set [9], the “% at 10 nM (5HT2B)” value stood at 82% and the “% at 100 nM (5HT2B)” value came to 101%.

As for `CC(C)c1cc2c(NC3CCN(Cc4cc(F)cc(F)c4)CC3)ncnc2s1` [Example B31, N-(1-(3,5-difluorobenzyl)piperidin-4-yl)-6-isopropylthieno [2,3-d] pyrimidin-4-amine, dihydrochloride], in [3] (po), the bioavailability was determined as 10%. The values for the half-life in data set [3] (setting [11]) and in data set [7] were 30 min and 8 min, respectively. This compound showed a half-inhibitory concentration (IC50) in data set [4] of 830 nM. The compound also gave a Ki in [5] (NA: Not Active) of 230 nM.

For the compound `CC(c1cccc(F)c1)N1CCC(Nc2ncnc3sccc23)CC1` (stereo not drawn) [Example B12, N-(1-(1-(3-fluorophenyl)ethyl)piperidin-4-yl) thieno[2,3-d]pyrimidin-4-amine, dihydrochloride], in [1], the “hERG (% Inhibition at 1 uM)” value is “hERG (% Inhibition at 1 uM): 58.5”. For the same compound, in [7], the half-life turned out to be 11 min. For the same compound, the affinity in [5] (NA: Not Active), expressed as Ki, was 250 nM.

In the case of `c1ccc(CN2CCC(Nc3ncnc4scc(-c5ccccc5)c34)CC2)cc1` [Example B6, N-(1-benzylpiperidin-4-yl)-5-phenylthieno [2,3-d]pyrimidin-4-amine], the half-life in [7] was less than 15 min. In data set [9], the “% at 10 nM (5HT2B)” value was found to be 38%, the “% at 100 nM (5HT2B)” value is recorded as 91% and the “% at 1000 nM (5HT2B)” value is 101%.

Consider `CC(c1cc(F)cc(F)c1)N1CCC(Nc2ncnc3sc4c(c23)CCCC4)CC1` (stereo not drawn) [Example B17, N-(1-(1-(3,5-difluorophenyl)ethyl)piperidin-4-yl)5,6,7,8-tetrahydro-benzo [4,5]thieno[2,3-d] pyrimidin-4-amine, dihydrochloride], for which, in data set [7], the half-life was less than 15 min. Further, the midpoint of inhibition in data set [4], the IC50, lay at 1300 nM.

As for `CC(C)Cc1cc2c(NC3CCN(C(C)c4cc(F)cc(F)c4)CC3)ncnc2s1` (stereo not drawn) [Example B18, N-(1-(1-(3,5-difluorophenyl)ethyl)piperidin-4-yl)-6-isobutylthieno[2,3-d]pyrimidin-4-amine, dihydrochloride], the “hERG (% Inhibition at 1 uM)” value in [1] was 31%. In addition, the half-life in data set [3] (setting [10]) was determined as 12 min; in data set [3] (setting [11]) it was 24 min; in [7], 7 min. In addition, the bioavailability in data set [3] (po) is 3%. In addition, in [4], half-maximal inhibition (IC50) required 5700 nM. Also, the fraction unbound in data set [6] was found to be 0.062.

`Oc1cc(C(F)(F)F)cnc1N1CCC(Nc2ncnc3scc(-c4ccccc4)c23)CC1` [Example B7, 2-(4-(5-phenylthieno [2,3-d]pyrimidin-4-ylamino)piperidin-1-yl)-5-(trifluoromethyl) pyridin-3-ol]: in [9], the “% at 10 nM (5HT2B)” value came to 3%, the “% at 100 nM (5HT2B)” value was found to be 4% and the “% at 1000 nM (5HT2B)” value is 30%.

On to `c1ccc(CN2CCC(Nc3ncnc4sc5c(c34)CCCC5)CC2)cc1` [Example B1, N-(1-benzylpiperidin-4-yl)5,6,7,8-tetrahydro-benzo[4,5]thieno[2,3-d]pyrimidin-4-amine], for which the half-life is 60 min in [3] (setting [11]) and less than 15 min in data set [7]. This compound displayed an IC50 in data set [4] of 110 nM.

As for `CC(C)Cc1cc2c(NC3CCN(C(C)c4cccc(F)c4)CC3)ncnc2s1` (stereo not drawn) [Example B14, N-(1-(1-(3-fluorophenyl)ethyl)piperidin-4-yl)-6-isobutylthieno[2,3-d] pyrimidin-4-amine, dihydrochloride], the “hERG (% Inhibition at 1 uM)” value in data set [1] is given as 76.1%. Also, the half-life in [3] (setting [10]) is 30 min; in data set [3] (setting [11]) it was 30 min; in [7], less than 15 min. Moreover, the bioavailability in [3] (po) was found to be 4%. Moreover, the IC50 in data set [4] is 5300 nM.

`Fc1cccc(CN2CCC(Nc3ncnc4sc5c(c34)CCCC5)CC2)c1` [Example B3, N-(1-(3-fluorobenzyl)piperidin-4-yl)5,6,7,8-tetrahydro-bcnzo[4,5]thieno[2,3-d]pyrimidin-4-amine]: the “hERG (% Inhibition at 1 uM)” value in [1] worked out at 58.5%. Further, the IC50 in [2] came out at 22.5 nM; in data set [4], 100 nM. Moreover, the half-life in data set [7] stood at 4.3 min. The same compound displayed a Ki in data set [5] (NA: Not Active) of 240 nM.

Take `Fc1cc(F)cc(CN2CCC(Nc3ncnc4sccc34)CC2)c1` [Example B30, N-(1-(3,5-difluorobenzyl)piperidin-4-yl) thieno[2,3-d]pyrimidin-4-amine, dihydrochloride]: in [1], the “hERG (% Inhibition at 1 uM)” value is on record as 62%. Further, the bioavailability in [3] (po) is 17%. Further, the half-life in data set [3] (setting [11]) is 48 min; in data set [7], 19 min. The same compound had an IC50 in data set [4] of 1600 nM.

As to `CC(C)c1cc2c(NC3CCN(Cc4cc(F)cc(F)c4)CC3)ncnc2s1` [Example B32, N-(1-(3,5-difluorobenzyl)piperidin-4-yl)-6-isopropylthieno [2,3-d] pyrimidin-4-amine, monomaleate], the half-inhibitory concentration (IC50) in data set [2] amounted to 1.53 nM; in data set [4], 450 nM.
